US9913827B2, “Bendamustine derivatives and methods of using same” (IGNYTA, INC., priority 2012, dated 2018)
pIC50: −log10 of the molar value. Read-outs that look alike come from different tables or passages of the source. Marks after values point to notes of the source that are not given here.

Tests used:
[1] = Tumor efficacy PK group, MB-231 tumor-bearing mice: tumor and plasma levels; conditions: for Ester level in Plasma at 1 hour / Ester level in Tumor at 1 hour: 80 mg/kg i.v.
Procedure: (§1) A portion of the tumor bearing mice were dosed as a satellite PK group. Each group was dosed as described for the tumor efficacy group, however the PK group was euthanized and tissue samples collected at 1, 3 and 6 hours post dosing on day 2. The tissues collected included blood, lung, liver and tumor. Samples were analyzed for bendamustine HCl and the corresponding ester analogue as described in the LC-MS protocol section.
(§2) Plasma and other tissues were prepared for high performance liquid chromatography (HPLC)/mass spectrometric analysis according to a standard protocol following protein precipitation with acetonitrile containing an internal standard. The samples were then analyzed for both bendamustine HCl and bendamustine esters of the invention and alprenolol (internal standard) via HPLC coupled with tandem mass spectrometry. Tissue samples were homogenized in sodium phosphate buffer and the value obtained from the assay was multiplied by 3 to correct for dilution during processing.

[2] = Tumor efficacy PK group, H-460 tumor-bearing mice: tumor and plasma levels; conditions: for Ester level in Plasma at 1 hour / Ester level in Tumor at 1 hour: 80 mg/kg i.v.
Procedure: The formulations were administrated as 100 μL dose volume through tail vein injection within 30 minutes after compounds were formulated. All the mice were weighed and tumors measured twice weekly. At the last day of the study, plasma, tumor, lung, liver, spleen, left kidney, brain and legs were collected and quickly frozen for further analysis two hours post-dosing.
as §1, §2

[3] = system: MDA-MB-231 xenografts; test: Nude mouse MDA-MB-231 tumor efficacy study; format: in vivo, athymic nude mice
Procedure: Charles River Labs athymic nude mice were subcutaneous injected with 5×10^6 human tumor cells in matrigel. The tumor volume was monitored until an average tumor size of ˜150 mm^3 was obtained in the mouse population The mice were then randomized in to one of the nine treatment groups (summarized in table below) with a population of 10 mice per group (n=10). Each of the formulations was dosed at 100 μL fixed volume via tail vein injection on day 1 and day 2 of the study. Mice were weighed and the tumor volume measured every 3-4 days for 3 weeks of the study duration.

[4] = system: H460 tumor cells (large cell lung cancer); test: Nude mouse H460 tumor efficacy study; format: in vivo, nu/nu mouse
Procedure: 2×10^6 cells/100 ul in the mix of medium and Matrigel (1:1 ratio) solution was injected into right back flank of each nu/nu mouse. The implanted mice were monitored and measured with electric calipers. The study started when the tumors reached ˜150 mm^3 in size. The mice were measured and randomized into 9 groups with 10 mice in each group per the below table: […]

[5] = Rat plasma pharmacokinetics at 3 mg-eq/kg i.v.; conditions: solution formulation 3 mg-eq/kg i.v.
[6] = system: RPMI 8226 (Human Plasmacytoma, Myeloma B Cells); format: in vivo, CB.17 SCID female mice; conditions: day 46
Procedure: RPMI 8226 (Human Plasmacytoma, Myeloma B Cells) ATCC #CCL-155;
80 CB.17 SCID female mice, 4-6 weeks old, 16-20 grams, obtained from Harlan animal breeding center
Cells (originated from ATCC) were cultured on RPMI medium. Cell suspension was centrifuged and resuspended in 50% Matrigel/HBSS to a final concentration of 7×10^7 cells/ml. The suspension was implanted s.c. in the right flank of the anesthetized mouse at a volume of 100 μl.
Seven ml saline were added to the original vial containing 3.5 mg powder resulting in 0.5 mg/ml. Three ml of this solution were added to 27 ml saline to receive 0.05 mg/ml concentration.
bendamustine preparation: 13.5 mg was dissolved in 3.6 ml of 1:1 mixture of 0.9% saline/5% mannitol just before the treatment. 1.05 ml of this solution was added to 0.95 ml diluent for 2 mg/ml solution.
1.05 ml of this solution was added to 0.95 ml diluent for 2 mg/ml solution.
On day 21, mice were sorted by the optimal average tumor volume (˜150 mm^3) and were allocated into eight groups of 9 mice each.
[formula] The analysis of weight gain and tumor volume progression was made using one-way ANOVA followed by Tukey post-hoc comparisons. Results

[7] = system: MB-231 (HBC); test: MTS cell assay (cell proliferation), MB-231; format: cell-based; conditions: Homo sapiens, 72 hours
Procedure: Charles River Labs athymic nude mice bearing MDA-MB-231 breast carcinoma cell line subcutaneous xenografts (5×10^6 cells in matrigel) were sacrificed to make a tumor isolate. Using sterile instruments and working aseptically, the tumors were removed from the euthanized animal. The tumor was placed in a 50 mL sterile conical tube and 5 mL of trypsin was added. The tumor was cut into small pieces and incubated at 37° C. for 30 minutes. After incubation, a cell strainer was placed on a second, sterile, 50 mL conical tube and the contents of the first tube were placed in the cell strainer. The tissue was forced through the filter using the flat end of a syringe plunger. The cell strainer was washed with 5 mLs of media containing FBS. The cells were spun down and the supernatant was discarded. The cells were resuspended in 20 mLs of complete media containing P/S and placed in a 75 cm flask.
(§3) Human carcinoma cells (2,000 cells/well) were incubated with the desired concentration of the test molecule (0-200 μM) for 72 hours. The cells were then incubated with MTS solution (Promega) for 1-2 hours, and the compounds effects on cell proliferation was determined by measuring the absorbance at 490 nm. Cell growth was expressed as a percent of the appropriate control (placebo). […] All data reported was the mean±SE of three independent experiments.

[8] = system: H-460 (NSCLC); test: MTS cell assay (cell proliferation), H-460; format: cell-based; conditions: Homo sapiens, NCI-H460, 72 hours
Procedure: as §3

[9] = HSA nanoparticle, 80 mg/kg i.v. day 1 and 2
[10] = Solution, 80 mg/kg i.v. day 1 and 2
[11] = HSA nanoparticle, 80 mg/kg i.v.
[12] = Solution, 37.5 mg/kg i.v. day 1 and 2

CCCCCCCCCCCCCCOC(=O)CCCc1nc2cc(N(CCCl)CCCl)ccc2n1C [bendamustine C14 ester, 4-{5-[Bis-(chloroethyl)-amino]-1-methyl-1H-benzimidazol-2-yl}butyric acid tetradecyl ester]
Ester level in Plasma at 1 hour ([1]; HSA nanoparticle): 5727 ng/mL
Ester level in Tumor at 1 hour ([1]; HSA nanoparticle): 10430 ng/mL
Ester level in Plasma at 1 hour ([1]; Solution): 14 ng/mL
Ester level in Tumor at 1 hour ([1]; Solution): 396 ng/mL
Ester level in Plasma at 1 hour ([2]; HSA nanoparticle): 3648 ng/mL
Ester level in Tumor at 1 hour ([2]; HSA nanoparticle): 4570 ng/mL
Ester level in Plasma at 1 hour ([2]; Solution): 32233 ng/mL
Ester level in Tumor at 1 hour ([2]; Solution): 8570 ng/mL
% Morbidity [3, 9]: 60%
% Mortality [3, 9]: 0%
% Morbidity [3, 10]: 40%
% Mortality [3, 10]: 0%
% Tumor Inh. [3, 10]: 90%
% Morbidity [4, 11]: 10%
% Mortality [4, 11]: 0%
% Tumor Inh. [4, 11]: 40%
% Morbidity ([4]; Solution, 80 mg/kg i.v.): 100%
% Mortality ([4]; Solution, 80 mg/kg i.v.): 40%
% Tumor Inh. ([4]; Solution, 80 mg/kg i.v.): 81%

CCCCCC(CCCC)OC(=O)CCCc1nc2cc(N(CCCl)CCCl)ccc2n1C (stereo not shown) [5-decanyl ester, 4-{5-[Bis-(chloroethyl)-amino]-1-methyl-1H-benzimidazol-2-yl}butyric acid 5-decyl ester]
Plasma levels of the dosed Ester [5]: All < MQL

Cn1c(CCCC(=O)O)nc2cc(N(CCCl)CCCl)ccc21 [Bendamustine, 4-[5-[bis(2-chloroethyl)amino]-1-methylbenzimidazol-2-yl]butanoic acid]
BM1 level in Plasma at 1 hour ([1]; Solution, 37.5 mg/kg i.v.): 906 ng/mL
BM1 level in Tumor at 1 hour ([1]; Solution, 37.5 mg/kg i.v.): 558 ng/mL
BM1 level in Plasma at 1 hour ([2]; Solution, 37.5 mg/kg i.v.): 1550 ng/mL
BM1 level in Tumor at 1 hour ([2]; Solution, 37.5 mg/kg i.v.): 1472 ng/mL
% TGI ([6]; 20 mg/kg iv on days 1 and 2): 66*** %
No. of CR ([6]; 20 mg/kg iv on days 1 and 2): 0
No. of PR ([6]; 20 mg/kg iv on days 1 and 2): 0
Δ mean tumor volume, (mean ± se) ([6]; 20 mg/kg iv on days 1 and 2): 205 ± 44
No. of CR ([6]; 37.5 mg/kg iv on days 1 and 2): 0
No. of PR ([6]; 37.5 mg/kg iv on days 1 and 2): 0
Δ mean tumor volume, (mean ± se) ([6]; 37.5 mg/kg iv on days 1 and 2): 113 ± 23
% TGI ([6]; 37.5 mg/kg iv on days 1 and 2, 37.5 mg/kg): 81%
% Morbidity [3, 12]: 10%
% Mortality [3, 12]: 0%
% Tumor Inh. [3, 12]: 77%
% Morbidity ([4]; Solution, 37.5 mg/kg i.v.): 0/0%
% Mortality ([4]; Solution, 37.5 mg/kg i.v.): 0/0%

Cn1c(CCCC(=O)OC2CCCCC2)nc2cc(N(CCCl)CCCl)ccc21 [Cy-hexyl bendamustine ester, 4-{5-[Bis-(chloroethyl)-amino]-1-methyl-1H-benzimidazol-2-yl}butyric acid cyclohexyl ester]
Plasma levels of the dosed Ester [5]: All < MQL

CCCCCCCCOC(=O)CCCc1nc2cc(N(CCCl)CCCl)ccc2n1C [bendamustine C8 ester, 4-{5-[Bis-(chloroethyl)-amino]-1-methyl-1H-benzimidazol-2-yl}butyric aid octyl ester]
pIC50 [7]: 4.27
pIC50 [8]: 4.31
